Test results taken from patent US11992561B2 (priority 2020, dated 2024).

Experiments:
[1] = Clinical study: plasma concentrations and pharmacokinetics after (S)-ketamine OTF; conditions: for Tmax: calculated using a PK model (NONMEM); for plasma level of the metabolite following administration of an OTF as compared to intravenous administration of 20 mg (S)-ketamine: FIGS. 3-8
[2] = Clinical study: safety, side effects, taste, psychedelic effects (Bowdle, Bond and Lader questionnaires)

CNC1(c2ccccc2Cl)CCCCC1=O (stereo not shown) [ketamine]
plasma levels of ketamine, intravenous administration versus administration of an OTF ([1]; FIGS. 9-11): higher for intravenous administration

N[C@]1(c2ccccc2Cl)CCC[C@H](O)C1=O [(S)-Hydroxynorketamine]
Tmax ([1]; 50 mg (S)-Ketamine OTF): 81 min | Tmax ([1]; 100 mg (S)-Ketamine OTF): 109 min | Cmax plasma concentration ([1]; All data, 50 mg (S)-ketamine OTF (formulation 15)): 94 ng/mL | Cmax plasma concentration ([1]; Buccally, 50 mg (S)-ketamine OTF, n=5): 81 ng/mL | plasma level of the metabolite following administration of an OTF as compared to intravenous administration of 20 mg (S)-ketamine [1]: higher | Cmax plasma concentration ([1]; Sublingually, 50 mg (S)-ketamine OTF, n=15): 98 ng/mL

CNC1(c2ccccc2Cl)CCCCC1=O (racemic) [(S)-ketamine, (S)-(±)-2-(2-chlorophenyl)-2-(methylamino)cyclohexan-1-one]
Dizziness (number of adverse events) ([2]; 20 mg (S)-ketamine IV): 4 | Drowsiness (number of adverse events) ([2]; 20 mg (S)-ketamine IV): 3 | Dry eyes (number of adverse events) ([2]; 20 mg (S)-ketamine IV): 1 | Headache (number of adverse events) ([2]; 20 mg (S)-ketamine IV): 3 | High blood pressure (SBP > 180 mm Hg) (number of adverse events) ([2]; 20 mg (S)-ketamine IV): 2 | Nausea (number of adverse events) ([2]; 20 mg (S)-ketamine IV): 2 | Sweating (number of adverse events) ([2]; 20 mg (S)-ketamine IV): 1 | Total (number of adverse events) ([2]; 20 mg (S)-ketamine IV): 17 | Whistling noise in the ear (number of adverse events) ([2]; 20 mg (S)-ketamine IV): 1 | Blurred vision (number of adverse events) ([2]; 50 mg (S)-ketamine as OTF): 1 | Bradykinesia (number of adverse events) ([2]; 50 mg (S)-ketamine as OTF): 1 | Dizziness (number of adverse events) ([2]; 50 mg (S)-ketamine as OTF): 1 | Feeling of drunkenness (number of adverse events) ([2]; 50 mg (S)-ketamine as OTF): 2 | Headache (number of adverse events) ([2]; 50 mg (S)-ketamine as OTF): 1 | Nausea (number of adverse events) ([2]; 50 mg (S)-ketamine as OTF): 1 | Total (number of adverse events) ([2]; 50 mg (S)-ketamine as OTF): 7 | Bradykinesia (number of adverse events) ([2]; 100 mg (S)-ketamine as OTF): 1 | Dizziness (number of adverse events) ([2]; 100 mg (S)-ketamine as OTF): 3 | Headache (number of adverse events) ([2]; 100 mg (S)-ketamine as OTF): 2 | Nausea (number of adverse events) ([2]; 100 mg (S)-ketamine as OTF): 1 | Numbness of the tongue (number of adverse events) ([2]; 100 mg (S)-ketamine as OTF): 2 | Total (number of adverse events) ([2]; 100 mg (S)-ketamine as OTF): 9

N[C@]1(c2ccccc2Cl)CCCCC1=O [(S)-Norketamine]
Tmax ([1]; 50 mg (S)-Ketamine OTF): 61 min | Tmax ([1]; 100 mg (S)-Ketamine OTF): 78 min | Cmax plasma concentration ([1]; All data, 2 × 50 mg (S)-ketamine OTF (formulation 15)): 330 ng/mL | Cmax plasma concentration ([1]; Buccally, 2 × 50 mg (S)-ketamine OTF, n=5): 450 ng/mL | plasma level of the metabolite following administration of an OTF as compared to intravenous administration of 20 mg (S)-ketamine [1]: higher
